Measurements published in patent publication US20250353891A1 (MEDIMMUNE LIMITED, priority 2022, published 2025).
Starred links: 1 amine or outer side, 2 acyl side, 3 side chain; linkers in the order of their positions; H or OH if unused. Non-standard residues stand in square brackets, D forms with d. Residues, ends and D or L forms follow the SMILES beside them. Groups on a side chain read outwards from the residue. *: point of attachment. C18 diacid = O=C(O)CCCCCCCCCCCCCCCCC(=O)*; γGlu = O=C(O)[C@H](CCC(=O)[*:2])N[*:1]; αMeF = C[C@](N)(Cc1ccccc1)C(=O)O; AEEA = NCCOCCOCC(=O)O; Aib = CC(C)(N)C(=O)O

How the values were obtained:
[1] = target: human GLP-1 receptor (hGLP-1R) (Homo sapiens, UniProt P43220); assay: cAMP production (HTRF) in CHO cells expressing hGLP-1R; format: cell-based; set-up: expressed in transfected cells; settings: for EC50: Table 6, peptides modified at position 17, cAMP in CHO hGLP-1R cells, geometric mean, read-out: hGLP-1R EC50; for % Relative Potency Ratio: Table 6, % GLP-1R activity relative to GLP-1 / % GlucR activity relative to glucagon
In short: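 Cells were resuspended in assay buffer at batch-optimized density, typically 1×10^5 cells/mL for hGLP-1R and 2×10^5 cells/mL for hGCGR. After 30 min incubation at room temperature with compound, cAMP was measured by two-step HTRF. EC50 values came from 4-parameter logistic fits of % Delta F.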

[2] = target: human glucagon receptor (hGCGR) (Homo sapiens, UniProt P47871); assay: cAMP production (HTRF) in CHO cells expressing hGCGR; format: cell-based; set-up: expressed in transfected cells; settings: Table 6, peptides modified at position 17; cAMP in CHO hGCGR cells; geometric mean; read-out: hGluc-R EC50
Description: Cells were re-suspended in assay buffer at a batch-dependent optimized concentration (typically hGLP-1R cells at 1×10^5 cells/mL, hGCGR cells at 2×10^5 cells/mL).
Cells were added to the assay plate using a multidrop dispenser and incubated at room temperature for 30 minutes before measuring the cAMP level using a cAMP dynamic 2 homogeneous time resolved Fluorescence (HTRF) kit (Cisbio Bioassays #62AM4PEJ) following the two-step protocol as per manufacturer's recommendations. In brief, anti-cAMP cryptate (donor fluorophore) and cAMP-d2 (acceptor fluorophore) were made up separately by diluting each 1 in 20 in conjugate and lysis buffer provided in the kit. Anti-CAMP cryptate was added to all wells of the assay plate, followed by cAMP-d2 added to all wells except non-specific binding (NSB) wells (to which conjugate and lysis buffer was added).
Data was transformed to % Delta F as described in the manufacturer's guidelines and analyzed by 4-parameter logistic fit to determine EC50 values.

Sequence of human glucagon receptor (hGCGR) (P47871 26-477): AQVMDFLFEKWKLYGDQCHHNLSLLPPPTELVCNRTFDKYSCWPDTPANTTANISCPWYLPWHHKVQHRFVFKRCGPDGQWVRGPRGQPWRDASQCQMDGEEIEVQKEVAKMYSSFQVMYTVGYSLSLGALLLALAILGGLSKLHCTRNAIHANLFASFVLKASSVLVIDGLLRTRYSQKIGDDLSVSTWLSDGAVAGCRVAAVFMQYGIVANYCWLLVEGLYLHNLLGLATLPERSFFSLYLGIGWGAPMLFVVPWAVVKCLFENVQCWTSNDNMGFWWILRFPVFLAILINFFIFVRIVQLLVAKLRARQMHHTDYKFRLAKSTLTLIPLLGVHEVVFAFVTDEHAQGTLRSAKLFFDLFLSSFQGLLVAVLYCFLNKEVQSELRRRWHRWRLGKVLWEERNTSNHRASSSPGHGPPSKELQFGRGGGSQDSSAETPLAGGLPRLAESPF
Sequence of human GLP-1 receptor (hGLP-1R) (P43220 24-463): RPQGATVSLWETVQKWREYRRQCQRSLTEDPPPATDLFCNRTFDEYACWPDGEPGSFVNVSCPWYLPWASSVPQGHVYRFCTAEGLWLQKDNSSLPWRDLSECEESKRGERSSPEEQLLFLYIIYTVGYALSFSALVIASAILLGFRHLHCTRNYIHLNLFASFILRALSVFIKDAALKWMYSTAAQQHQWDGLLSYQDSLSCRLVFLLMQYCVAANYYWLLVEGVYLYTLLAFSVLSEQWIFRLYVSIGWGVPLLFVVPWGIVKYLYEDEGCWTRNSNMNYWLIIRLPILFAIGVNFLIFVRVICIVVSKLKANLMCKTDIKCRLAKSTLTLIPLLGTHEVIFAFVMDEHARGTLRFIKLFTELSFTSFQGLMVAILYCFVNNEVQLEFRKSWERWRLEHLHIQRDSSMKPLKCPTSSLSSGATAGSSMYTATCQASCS

Structure (SMILES)	EC50 [1] [nM]	% Relative Potency Ratio [1]	EC50 [2] [nM]
CC[C@H](C)[C@H](NC(=O)[C@H](Cc1c[nH]c2ccccc12)NC(=O)[C@H](CCC(=O)O)NC(=O)[C@@H](NC(=O)[C@](C)(Cc1ccccc1)NC(=O)[C@H](CC(=O)O)NC(=O)[C@H](CCC(N)=O)NC(=O)[C@H](C)NC(=O)[C@H](C)NC(=O)[C@H](CCCCNC(=O)COCCOCCNC(=O)COCCOCCNC(=O)CC[C@H](NC(=O)CCCCCCCCCCCCCCCCC(=O)O)C(=O)O)NC(=O)[C@H](CO)NC(=O)[C@H](CC(=O)O)NC(=O)[C@H](CC(C)C)NC(=O)[C@](C)(Cc1ccccc1)NC(=O)[C@H](CCCCN)NC(=O)[C@H](CO)NC(=O)[C@@H](NC(=O)[C@H](CC(=O)O)NC(=O)[C@H](CO)NC(=O)[C@@H](NC(=O)[C@](C)(Cc1ccccc1)NC(=O)[C@H](CO)NC(=O)CNC(=O)[C@H](Cc1c[nH]cn1)NC(=O)C(C)(C)NC(=O)[C@@H](N)Cc1c[nH]cn1)[C@@H](C)O)C(C)C)C(C)C)C(=O)N[C@@H](C)C(=O)N[C@@H](CC(N)=O)C(N)=O [Peptide 6] (H-H[Aib]HGS[αMeF]TSDVSK[αMeF]LDSK([AEEA-AEEA-γGlu-C18 diacid])AAQD[αMeF]VEWIAN-NH2; N-terminus assumed)	0.568	1.8	0.516
CC[C@H](C)[C@H](NC(=O)C(C)(C)NC(=O)[C@H](CCC(N)=O)NC(=O)[C@@H](NC(=O)[C@H](Cc1ccccc1)NC(=O)[C@H](CC(=O)O)NC(=O)[C@H](CCC(N)=O)NC(=O)[C@H](C)NC(=O)[C@H](C)NC(=O)[C@H](CCCCNC(=O)COCCOCCNC(=O)COCCOCCNC(=O)CC[C@H](NC(=O)CCCCCCCCCCCCCCCCC(=O)O)C(=O)O)NC(=O)[C@H](CO)NC(=O)[C@H](CC(=O)O)NC(=O)[C@H](CC(C)C)NC(=O)[C@](C)(Cc1ccccc1)NC(=O)[C@H](CCCCN)NC(=O)[C@H](CO)NC(=O)[C@@H](NC(=O)[C@H](CC(=O)O)NC(=O)[C@H](CO)NC(=O)[C@@H](NC(=O)[C@](C)(Cc1ccccc1)NC(=O)[C@H](CO)NC(=O)CNC(=O)[C@H](Cc1c[nH]cn1)NC(=O)C(C)(C)NC(=O)[C@@H](N)Cc1c[nH]cn1)[C@@H](C)O)C(C)C)C(C)C)C(=O)N[C@@H](C)C(=O)N[C@@H](CC(N)=O)C(=O)N[C@H](C(N)=O)[C@@H](C)O [Peptide 11] (H-H[Aib]HGS[αMeF]TSDVSK[αMeF]LDSK([AEEA-AEEA-γGlu-C18 diacid])AAQDFVQ[Aib]IANT-NH2)	0.157	1.5	0.118
CC[C@H](C)[C@H](NC(=O)C(C)(C)NC(=O)[C@H](CCC(N)=O)NC(=O)[C@@H](NC(=O)[C@H](Cc1ccccc1)NC(=O)[C@H](CC(=O)O)NC(=O)[C@H](CCCNC(=N)N)NC(=O)[C@H](C)NC(=O)[C@H](C)NC(=O)[C@H](CCCCNC(=O)COCCOCCNC(=O)COCCOCCNC(=O)CC[C@H](NC(=O)CCCCCCCCCCCCCCCCC(=O)O)C(=O)O)NC(=O)[C@H](CO)NC(=O)[C@H](CC(=O)O)NC(=O)[C@H](CC(C)C)NC(=O)[C@](C)(Cc1ccccc1)NC(=O)[C@H](CCCCN)NC(=O)[C@H](CO)NC(=O)[C@@H](NC(=O)[C@H](CC(=O)O)NC(=O)[C@H](CO)NC(=O)[C@@H](NC(=O)[C@](C)(Cc1ccccc1)NC(=O)[C@H](CO)NC(=O)CNC(=O)[C@H](Cc1c[nH]cn1)NC(=O)C(C)(C)NC(=O)[C@@H](N)Cc1c[nH]cn1)[C@@H](C)O)C(C)C)C(C)C)C(=O)N[C@@H](C)C(=O)N[C@@H](CC(N)=O)C(=O)N[C@H](C(N)=O)[C@@H](C)O [Peptide 12] (H-H[Aib]HGS[αMeF]TSDVSK[αMeF]LDSK([AEEA-AEEA-γGlu-C18 diacid])AARDFVQ[Aib]IANT-NH2; N-terminus assumed)	0.0145	6.5	0.0477
CC[C@H](C)[C@H](NC(=O)C(C)(C)NC(=O)[C@H](CCC(N)=O)NC(=O)[C@@H](NC(=O)[C@](C)(Cc1ccccc1)NC(=O)[C@H](CC(=O)O)NC(=O)[C@H](CCCNC(=N)N)NC(=O)[C@H](C)NC(=O)[C@H](C)NC(=O)[C@H](CCCCNC(=O)COCCOCCNC(=O)COCCOCCNC(=O)CC[C@H](NC(=O)CCCCCCCCCCCCCCCCC(=O)O)C(=O)O)NC(=O)[C@H](CO)NC(=O)[C@H](CC(=O)O)NC(=O)[C@H](CC(C)C)NC(=O)[C@](C)(Cc1ccccc1)NC(=O)[C@H](CCCCN)NC(=O)[C@H](CO)NC(=O)[C@@H](NC(=O)[C@H](CC(=O)O)NC(=O)[C@H](CO)NC(=O)[C@@H](NC(=O)[C@](C)(Cc1ccccc1)NC(=O)[C@H](CO)NC(=O)CNC(=O)[C@H](Cc1c[nH]cn1)NC(=O)C(C)(C)NC(=O)[C@@H](N)Cc1c[nH]cn1)[C@@H](C)O)C(C)C)C(C)C)C(=O)N[C@@H](C)C(=O)N[C@@H](CC(N)=O)C(=O)N[C@H](C(N)=O)[C@@H](C)O [Peptide 13] (H-H[Aib]HGS[αMeF]TSDVSK[αMeF]LDSK([AEEA-AEEA-γGlu-C18 diacid])AARD[αMeF]VQ[Aib]IANT-NH2; N-terminus assumed)	0.0159	5.5	0.044

Further lines, results first:

EC50 [1] [nM]	% Relative Potency Ratio [1]	EC50 [2] [nM]	Structure (SMILES)
0.0878	1.2	0.0536	CC[C@H](C)[C@H](NC(=O)[C@H](Cc1c[nH]c2ccccc12)NC(=O)[C@H](CCC(N)=O)NC(=O)[C@@H](NC(=O)[C@H](Cc1ccccc1)NC(=O)[C@H](CC(=O)O)NC(=O)[C@H](CCC(N)=O)NC(=O)[C@H](C)NC(=O)[C@H](C)NC(=O)[C@H](CCCCNC(=O)COCCOCCNC(=O)COCCOCCNC(=O)CC[C@H](NC(=O)CCCCCCCCCCCCCCCCC(=O)O)C(=O)O)NC(=O)[C@H](CO)NC(=O)[C@H](CC(=O)O)NC(=O)[C@H](CC(C)C)NC(=O)[C@](C)(Cc1ccccc1)NC(=O)[C@H](CCCCN)NC(=O)[C@H](CO)NC(=O)[C@@H](NC(=O)[C@H](CC(=O)O)NC(=O)[C@H](CO)NC(=O)[C@@H](NC(=O)[C@](C)(Cc1ccccc1)NC(=O)[C@H](CO)NC(=O)CNC(=O)[C@H](Cc1c[nH]cn1)NC(=O)C(C)(C)NC(=O)[C@@H](N)Cc1c[nH]cn1)[C@@H](C)O)C(C)C)C(C)C)C(=O)N[C@@H](C)C(=O)N[C@@H](CC(N)=O)C(=O)N[C@H](C(N)=O)[C@@H](C)O [Peptide 8] (H-H[Aib]HGS[αMeF]TSDVSK[αMeF]LDSK([AEEA-AEEA-γGlu-C18 diacid])AAQDFVQWIANT-NH2; N-terminus assumed)
0.242	2.3	0.279	CC[C@H](C)[C@H](NC(=O)[C@H](Cc1c[nH]c2ccccc12)NC(=O)[C@H](CCC(N)=O)NC(=O)[C@@H](NC(=O)[C@H](Cc1ccccc1)NC(=O)[C@H](CC(=O)O)NC(=O)[C@H](CCCNC(=N)N)NC(=O)[C@H](C)NC(=O)[C@H](C)NC(=O)[C@H](CCCCNC(=O)COCCOCCNC(=O)COCCOCCNC(=O)CC[C@H](NC(=O)CCCCCCCCCCCCCCCCC(=O)O)C(=O)O)NC(=O)[C@H](CO)NC(=O)[C@H](CC(=O)O)NC(=O)[C@H](CC(C)C)NC(=O)[C@](C)(Cc1ccccc1)NC(=O)[C@H](CCCCN)NC(=O)[C@H](CO)NC(=O)[C@@H](NC(=O)[C@H](CC(=O)O)NC(=O)[C@H](CO)NC(=O)[C@@H](NC(=O)[C@](C)(Cc1ccccc1)NC(=O)[C@H](CO)NC(=O)CNC(=O)[C@H](Cc1c[nH]cn1)NC(=O)C(C)(C)NC(=O)[C@@H](N)Cc1c[nH]cn1)[C@@H](C)O)C(C)C)C(C)C)C(=O)N[C@@H](C)C(=O)N[C@@H](CC(N)=O)C(=O)N[C@H](C(N)=O)[C@@H](C)O [Peptide 9] (H-H[Aib]HGS[αMeF]TSDVSK[αMeF]LDSK([AEEA-AEEA-γGlu-C18 diacid])AARDFVQWIANT-NH2; N-terminus assumed)
0.658	1.1	0.377	CC[C@H](C)[C@H](NC(=O)[C@H](Cc1c[nH]c2ccccc12)NC(=O)[C@H](CCC(=O)O)NC(=O)[C@@H](NC(=O)[C@H](Cc1ccccc1)NC(=O)[C@H](CC(=O)O)NC(=O)[C@H](CCCNC(=N)N)NC(=O)[C@H](C)NC(=O)[C@H](C)NC(=O)[C@H](CCCCNC(=O)COCCOCCNC(=O)COCCOCCNC(=O)CC[C@H](NC(=O)CCCCCCCCCCCCCCCCC(=O)O)C(=O)O)NC(=O)[C@H](CO)NC(=O)[C@H](CC(=O)O)NC(=O)[C@H](CC(C)C)NC(=O)[C@](C)(Cc1ccccc1)NC(=O)[C@H](CCCCN)NC(=O)[C@H](CO)NC(=O)[C@@H](NC(=O)[C@H](CC(=O)O)NC(=O)[C@H](CO)NC(=O)[C@@H](NC(=O)[C@](C)(Cc1ccccc1)NC(=O)[C@H](CO)NC(=O)CNC(=O)[C@H](Cc1c[nH]cn1)NC(=O)C(C)(C)NC(=O)[C@@H](N)Cc1c[nH]cn1)[C@@H](C)O)C(C)C)C(C)C)C(=O)N[C@@H](C)C(=O)N[C@@H](CC(N)=O)C(=O)N[C@H](C(N)=O)[C@@H](C)O [Peptide 10] (H-H[Aib]HGS[αMeF]TSDVSK[αMeF]LDSK([AEEA-AEEA-γGlu-C18 diacid])AARDFVEWIANT-NH2; N-terminus assumed)
